Measurements from US20160158200A1, “Combinations of Hepatitis C Virus Inhibitors” (priority 2013, published 2016).

What follows are molecules tested on HCV genotype-1a variant with glutamine 30 changed to glutamate in the NS5A protein. Conditions: test compound titrated with BMS-790052 fixed at 200 nM; genotype 1a Q30E replicon.
Format: cell-based
Text: The NS5A synergistic inhibitory effect of test compounds can be determined using various amounts of an NS5A-targeting compound with titration of a second compound of interest. […] In one embodiment, the HCV genotype strain can be genotype 1a containing a change at amino acid 30 of the NS5A protein consisting of glutamine to glutamate. The test compound can be chosen from compounds listed above or from others present in the literature.
With `CC(C)[C@H](NC(=O)C1CCC(F)(F)CC1)c1ncc(-c2ccc(-c3ccc(-c4cnc([C@@H](NC(=O)C5CCC(F)(F)CC5)C(C)C)n4C)cc3)cc2)n1C` [Compound B-200] the “Fold-Synergistic 1a (Q30E)” value was <10 fold. `COc1cccc(C(=O)C(=O)N[C@H](c2ncc(-c3ccc(-c4ccc(-c5cnc([C@@H](NC(=O)C(=O)c6cccc(OC)c6F)C(C)C)[nH]5)cc4)cc3)[nH]2)C(C)C)c1F` [Compound P-119] was tested, and the “Fold-Synergistic 1a (Q30E)” value was >100 fold. In the case of `CC(C)CC(=O)N[C@@H](c1nc(-c2ccc(-c3ccc(-c4c[nH]c([C@H](NC(=O)CC(C)C)C(C)C)n4)cc3)cc2)c[nH]1)C(C)C` [Compound P-54.1], the “Fold-Synergistic 1a (Q30E)” value is reported as >100 fold. For `CC(C)(C)C(=O)N[C@H](c1ncc(-c2ccc(-c3ccc(-c4cnc([C@@H](NC(=O)C(C)(C)C)C5(C)CCC5)[nH]4)cc3)cc2)[nH]1)C1(C)CCC1` [Compound Y-39], the “Fold-Synergistic 1a (Q30E)” value was >100 fold. In the case of `CC1CN(C(=O)C(=O)N[C@H](c2nc(-c3ccc(-c4ccc(-c5c[nH]c([C@@H](NC(=O)C(=O)N6CC(C)OC(C)C6)C(C)(C)C)n5)cc4)cc3)c[nH]2)C(C)(C)C)CC(C)O1` (single isomer, unassigned) [Compound W-40B], the “Fold-Synergistic 1a (Q30E)” value is reported as >100 fold. With `CC1([C@H](NC(=O)C(=O)N2CCCCCC2)c2nc(-c3ccc(-c4ccc(-c5c[nH]c([C@@H](NC(=O)C(=O)N6CCCCCC6)C6(C)CC6)n5)cc4)cc3)c[nH]2)CC1` [Compound W-57] the “Fold-Synergistic 1a (Q30E)” value was >100 fold. `CC(C)(C)[C@H](NC(=O)C12CCC(CC1)C2)c1nc(-c2ccc(-c3ccc(-c4c[nH]c([C@@H](NC(=O)C56CCC(CC5)C6)C(C)(C)C)n4)cc3)cc2)c[nH]1` [Compound S-261] was tested, and the “Fold-Synergistic 1a (Q30E)” value was >100 fold. With `CC(C)[C@H](NC(=O)C1CCCC1)c1ncc(-c2ccc(-c3ccc(-c4cnc([C@@H](NC(=O)C5CCCC5)C(C)C)[nH]4)cc3)cc2)[nH]1` [Compound S-23] the “Fold-Synergistic 1a (Q30E)” value was >100 fold. In the case of `Cc1ccccc1C(C(=O)NC(c1nc(-c2ccc(-c3ccc(-c4c[nH]c(C(NC(=O)C(c5ccccc5C)C(C)C)C(C)(C)C)n4)cc3)cc2)c[nH]1)C(C)(C)C)C(C)C` (mixture of isomers) [Compound S-258], the “Fold-Synergistic 1a (Q30E)” value is reported as >100 fold. With `CC(C)[C@H](NC(=O)c1cnco1)c1ncc(-c2ccc(-c3ccc(-c4cnc([C@@H](NC(=O)c5cnco5)C(C)C)[nH]4)cc3)cc2)[nH]1` [Compound P-94] the “Fold-Synergistic 1a (Q30E)” value was >10 fold. `CC(C)[C@H](NC(=O)[C@@]1(C)CCC(F)(F)CO1)c1nc(-c2ccc(-c3ccc(-c4c[nH]c([C@@H](NC(=O)[C@@]5(C)CCC(F)(F)CO5)C(C)C)n4)cc3F)cc2)c[nH]1` [Compound N-133] was tested, and the “Fold-Synergistic 1a (Q30E)” value was >100 fold. `CC(C)[C@H](NC(=O)C(C)(C)CO)c1ncc(-c2ccc(-c3ccc(-c4cnc([C@@H](NC(=O)C(C)(C)CO)C(C)C)[nH]4)cc3)cc2)[nH]1` [Compound P-67] was tested, and the “Fold-Synergistic 1a (Q30E)” value was >100 fold. In the case of `CC(C)(C)C(NC(=O)C1CCCCN1CC(F)(F)F)c1nc(-c2ccc(-c3ccc(-c4c[nH]c(C(NC(=O)C5CCCCN5CC(F)(F)F)C(C)(C)C)n4)cc3)cc2)c[nH]1` [Compound L-51], the “Fold-Synergistic 1a (Q30E)” value is reported as >100 fold. `CC(C)[C@H](NC(=O)C1(F)CCCCC1)c1ncc(-c2ccc(-c3ccc(-c4cnc([C@@H](NC(=O)C5(F)CCCCC5)C(C)C)[nH]4)cc3)cc2)[nH]1` [Compound Y-30] was tested, and the “Fold-Synergistic 1a (Q30E)” value was >100 fold. In the case of `CC(C)(C)C(NC(=O)C(C)(O)C(F)(F)F)c1nc(-c2ccc(-c3ccc(-c4c[nH]c(C(NC(=O)C(C)(O)C(F)(F)F)C(C)(C)C)n4)cc3)cc2)c[nH]1.O=C(O)C(F)(F)F.O=C(O)C(F)(F)F` (single isomer, unassigned) [Compound L-66a], the “Fold-Synergistic 1a (Q30E)” value is reported as >100 fold. In the case of `CC(C)[C@H](NC(=O)c1ccccc1F)c1nc(-c2ccc(-c3ccc(-c4c[nH]c([C@@H](NC(=O)c5ccccc5F)C(C)C)n4)c(F)c3)cc2)c[nH]1.O=C(O)C(F)(F)F` [Compound N-92], the “Fold-Synergistic 1a (Q30E)” value is reported as >100 fold. For `CC(C)(C)OC(=O)NC1(C(=O)NC(c2nc(-c3ccc(-c4ccc(-c5c[nH]c(C(NC(=O)C6(NC(=O)OC(C)(C)C)CCC(F)(F)CC6)C(C)(C)C)n5)cc4)cc3)c[nH]2)C(C)(C)C)CCC(F)(F)CC1` [Compound L-49], the “Fold-Synergistic 1a (Q30E)” value was >100 fold. For `COC(=O)C12CCC(C(=O)N[C@H](c3nc(-c4ccc(-c5ccc(-c6c[nH]c([C@@H](NC(=O)C78CCC(C(=O)OC)(CC7)CC8)C(C)(C)C)n6)cc5)cc4)c[nH]3)C(C)(C)C)(CC1)CC2` [Compound W-127], the “Fold-Synergistic 1a (Q30E)” value was >100 fold. With `CC(C)(C)[C@H](NC(=O)c1cccc(B(O)O)c1)c1nc(-c2ccc(-c3ccc(-c4cnc([C@@H](NC(=O)c5cccc(B(O)O)c5)C(C)(C)C)[nH]4)cc3)cc2)c[nH]1` [Compound B-178] the “Fold-Synergistic 1a (Q30E)” value was >10 fold. With `COCCC(=O)N[C@H](c1ncc(-c2ccc(-c3ccc(-c4cnc([C@@H](NC(=O)CCOC)C(C)C)[nH]4)cc3)cc2)[nH]1)C(C)C` [Compound S-51] the “Fold-Synergistic 1a (Q30E)” value was >10 fold. In the case of `CC(C)(C)[C@H](NC(=O)C1(C2(O)CCC(F)(F)CC2)CC1)c1nc(-c2ccc(-c3ccc(-c4c[nH]c([C@@H](NC(=O)C5(C6(O)CCC(F)(F)CC6)CC5)C(C)(C)C)n4)cc3)cc2)c[nH]1` [Compound P-146], the “Fold-Synergistic 1a (Q30E)” value is reported as >100 fold. With `CC(C)(C)[C@H](NC(=O)C(=O)N1CCCC1)c1nc(-c2ccc(-c3ccc(-c4c[nH]c([C@@H](NC(=O)C(=O)N5CCCC5)C(C)(C)C)n4)cc3)cc2)c[nH]1` [Compound W-21] the “Fold-Synergistic 1a (Q30E)” value was >100 fold. For `CC(C)(NC(=O)OC1CCCCC1)C(=O)N[C@H](c1nc(-c2ccc(-c3ccc(-c4c[nH]c([C@@H](NC(=O)C(C)(C)NC(=O)OC5CCCCC5)C(C)(C)C)n4)cc3)cc2)c[nH]1)C(C)(C)C` [Compound Q-6], the “Fold-Synergistic 1a (Q30E)” value was >100 fold. In the case of `CC(C)(C)[C@H](NC(=O)C1CCOCC1)c1nc(-c2ccc(-c3ccc(-c4c[nH]c([C@@H](NC(=O)C5CCOCC5)C(C)(C)C)n4)cc3)cc2)c[nH]1` [Compound W-123], the “Fold-Synergistic 1a (Q30E)” value is reported as >100 fold. With `CC(C)(C)[C@H](NC(=O)C1(C(=O)O)CCCCC1)c1nc(-c2ccc(-c3ccc(-c4c[nH]c([C@@H](NC(=O)C5(C(=O)O)CCCCC5)C(C)(C)C)n4)cc3)cc2)c[nH]1` [Compound N-147] the “Fold-Synergistic 1a (Q30E)” value was >100 fold. For `Cc1cccc(C(=O)N[C@H](c2ncc(-c3ccc(-c4ccc(-c5cnc([C@@H](NC(=O)c6cccc(C)n6)C(C)C)[nH]5)cc4)cc3)[nH]2)C(C)C)n1` [Compound S-48], the “Fold-Synergistic 1a (Q30E)” value was >100 fold. In the case of `CC(CO)(OCCF)C(=O)N[C@H](c1nc(-c2ccc(-c3ccc(-c4c[nH]c([C@@H](NC(=O)C(C)(CO)OCCF)C(C)(C)C)n4)cc3)cc2)c[nH]1)C(C)(C)C` (single isomer, unassigned) [Compound W-271], the “Fold-Synergistic 1a (Q30E)” value is reported as >100 fold. `COC1(C(=O)NC(c2nc(-c3ccc(-c4ccc(-c5c[nH]c(C(NC(=O)C6(OC)CCOC6)C(C)(C)C)n5)cc4)cc3)c[nH]2)C(C)(C)C)CCOC1` (mixture of isomers) [Compound N-158] was tested, and the “Fold-Synergistic 1a (Q30E)” value was >100 fold. `CC(C)(C)[C@H](NC(=O)C1C2CC(F)(F)CC21)c1nc(-c2ccc(-c3ccc(-c4c[nH]c([C@@H](NC(=O)C5C6CC(F)(F)CC65)C(C)(C)C)n4)cc3)cc2)c[nH]1` (some centres unmarked) [Compound Y-7] was tested, and the “Fold-Synergistic 1a (Q30E)” value was >100 fold. `COc1ccc(CNC(C)(C)C(=O)N[C@H](c2nc(-c3ccc(-c4ccc(-c5c[nH]c([C@@H](NC(=O)C(C)(C)NCc6ccc(OC)cc6)C(C)(C)C)n5)cc4)cc3)c[nH]2)C(C)(C)C)cc1` [Compound S-267] was tested, and the “Fold-Synergistic 1a (Q30E)” value was >100 fold. `COC(=O)NN(C(=O)[C@@H]1CCC[C@H]1c1nc(-c2ccc(-c3ccc(-c4cnc([C@@H]5CCC[C@H]5C(=O)N(NC(=O)OC)C(C)C)[nH]4)cc3)cc2)c[nH]1)C(C)C` [Compound V-1] was tested, and the “Fold-Synergistic 1a (Q30E)” value was >100 fold. For `CC(C)[C@H](NC(=O)[C@@H]1CCCO1)c1ncc(-c2ccc(-c3ccc(-c4cnc([C@@H](NC(=O)[C@@H]5CCCO5)C(C)C)[nH]4)cc3)cc2)[nH]1` [Compound P-66], the “Fold-Synergistic 1a (Q30E)” value was >100 fold. `CCOC(=O)C(=O)N[C@H](c1nc(-c2ccc(-c3ccc(-c4c[nH]c([C@@H](NC(=O)C(=O)OCC)C(C)(C)C)n4)cc3)cc2)c[nH]1)C(C)(C)C` [Compound W-30] was tested, and the “Fold-Synergistic 1a (Q30E)” value was >100 fold. For `CC(C)(C)[C@H](NC(=O)C1(C(F)(F)F)CCC1)c1nc(-c2ccc(-c3ccc(-c4c[nH]c([C@@H](NC(=O)C5(C(F)(F)F)CCC5)C(C)(C)C)n4)cc3)cc2)c[nH]1` [Compound L-129], the “Fold-Synergistic 1a (Q30E)” value was >100 fold. For `CC(C)(C)C(NC(=O)C1CCCO1)c1nc(-c2ccc(-c3ccc(-c4c[nH]c(C(NC(=O)C5CCCO5)C(C)(C)C)n4)cc3)cc2)c[nH]1` [Compound L-65], the “Fold-Synergistic 1a (Q30E)” value was >100 fold. `COc1cc2ccccc2c(C(=O)N[C@H](c2ncc(-c3ccc(-c4ccc(-c5cnc([C@@H](NC(=O)c6nc(OC)cc7ccccc67)C(C)C)[nH]5)cc4)cc3)[nH]2)C(C)C)n1` [Compound Y-19] was tested, and the “Fold-Synergistic 1a (Q30E)” value was >100 fold. For `CC(C)(C)[C@H](NS(=O)(=O)C1CCCCC1)c1nc(-c2ccc(-c3ccc(-c4c[nH]c([C@@H](NS(=O)(=O)C5CCCCC5)C(C)(C)C)n4)cc3)cc2)c[nH]1` [Compound L-118], the “Fold-Synergistic 1a (Q30E)” value was >100 fold. In the case of `CC(C)[C@H](NC(=O)CCCc1ccccc1)c1ncc(-c2ccc(-c3ccc(-c4cnc([C@@H](NC(=O)CCCc5ccccc5)C(C)C)[nH]4)cc3)cc2)[nH]1` [Compound S-57], the “Fold-Synergistic 1a (Q30E)” value is reported as >100 fold. For `CC(C)[C@H](NC(=O)C1(C(C)O)CC1)c1ncc(-c2ccc(-c3ccc(-c4cnc([C@@H](NC(=O)C5(C(C)O)CC5)C(C)C)n4C)cc3)cc2)n1C` (single isomer, unassigned) [Compound B-202], the “Fold-Synergistic 1a (Q30E)” value was >10 fold. For `COC(C)(C)C(=O)N[C@H](c1ncc(-c2ccc(-c3ccc(-c4cnc([C@@H](NC(=O)C(C)(C)OC)C(C)C)[nH]4)cc3)cc2)[nH]1)C(C)C` [Compound P-69], the “Fold-Synergistic 1a (Q30E)” value was >100 fold. For `CCC(=O)N[C@H](c1ncc(-c2ccc(-c3ccc(-c4cnc([C@@H](NC(=O)CC)C(C)C)[nH]4)cc3)cc2)[nH]1)C(C)C` [Compound S-31], the “Fold-Synergistic 1a (Q30E)” value was >100 fold.
